Series [1] has as its system influenza A/PR/8/34 (H1N1). The series can be described thus: microbe, parasite or virus in culture. The format is cell-based, influenza A virus.
The test system of another series is influenza A/WS/33 (H1N1). The series can be described thus: microbe, parasite or virus in culture. The format is cell-based, influenza A virus.
The test system of series [2] is influenza A/HK/8/68 (H3N2). The series is described as follows: microbe, parasite or virus in culture. The format is cell-based, influenza A virus.
In a further series the test system is influenza B/GL/1739/54. The series can be described thus: Anti-viral EC50 experiment, survival of virus-infected Vero cells. The format is cell-based, influenza B virus. As for the experimental part:
The following MDT compounds were tested: MDT-1, MDT-3, MDT-10, MDT-11, MDT-12, MDT-13, MDT-14, MDT-15, MDT-16, MDT-22, MDT-23, MDT-24, MDT-26, MDT-27, MDT-28, MDT-29, MDT-30, MDT-31, MDT-32, MDT-33, MDT-34, MDT-40, MDT-41, MDT-42, MDT-43, MDT-44, MDT-45, MDT-46, MDT-47, MDT-48, MDT-49, MDT-50, MDT-51, MDT-53, MDT-56, MDT-57, MDT-58, MDT-59, MDT-60, MDT-61, MDT-62, MDT-63, MDT-65, MDT-67, MDT-68 and MDT-69. […] Amantadine and rimantadine are both adamantane derivatives.
Compound diluents were dimethyl sulfoxide (DMSO), Molecusol ((2-hydroxypropyl)-β-cyclodextrin; Sigma H107), propylene-glycol (PG) and deionized water. Diluents were used singly or in combination as necessary to dissolve the compounds.
The medium used for the cell lines was 1× Minimal Essential Medium (MEM) (Invitrogen) supplemented with 1% L-glutamine, 1% penicillin-streptomycin, 0.125% bovine serum albumin (BSA), and 1 μg/ml of TPCK-trypsin.
The viruses tested were influenza A/PR/8/34 (H1N1), influenza A/WS/33 (H1N1), influenza A/HK/8/68 (H3N2) and influenza B/GL/1739/54 (no H, N subtyping). Cells used were the Vero line of African green monkey, normal kidney cells. All viruses and cells were obtained from The American Type Culture Collection (Rockville, Md.). Cells were grown in an atmosphere of 4-6% CO2 at 34-38° C. in MEM with 5% fetal bovine serum (FBS), 2 mM glutamine, and 1% penicillin-streptomycin solution to maintain exponential growth.
The Vero cells were plated on Day 0. On Day 1, cells were infected with virus and incubated with various concentrations of test compounds. […] On Day 4 the cells were fixed and stained. […] Cell survival due to exposure to test compound was indicative of anti-viral activity.

Where [3] appears, read: Table 3, Vero cells, H1N1, n at least 2, No effic. = no efficacy measured.
The mark [4] stands for this setting: Table 3, Vero cells, H3N2, n at least 2, No effic. = no efficacy measured, read-out: EC50 Virus A/HK/8/68.
[5] abbreviates: Table 3, Vero cells, n at least 2, No effic. = no efficacy measured.
Setting [6] is: Table 3, MDT compounds, No Tox. = no cytotoxicity measured.
Setting [7] is: Influenza A virus, Table 3, Vero cells, H1N1, n at least 2, No effic. = no efficacy measured.
Where [8] appears, read: Table 3, Vero cells, H3N2, n at least 2, No effic. = no efficacy measured.
The mark [9] stands for this setting: Table 3, Vero cells, H1N1, n at least 2, No effic. = no efficacy measured, read-out: EC50 Virus A/PR/8/34.
The mark [10] stands for this setting: Table 3, Vero cells, H1N1, n at least 2, No effic. = no efficacy measured, read-out: EC50 Virus A/WS/33.
The mark [11] stands for this setting: Influenza A virus, Vero, Table 4, controls, cutoff control values compiled through many experiments.
Setting [12] is: Influenza A virus, H1N1, Vero, Table 4, controls, cutoff control values compiled through many experiments.
The mark [13] stands for this setting: Influenza A virus, H3N2, Vero, Table 4, controls, cutoff control values compiled through many experiments.
Where [14] appears, read: Influenza B virus, Vero, Table 4, controls, cutoff control values, determined over only 2 experiments.
Setting [15] is: Table 4, controls, No Tox = no cytotoxicity measured.

Where two headings read alike, the source gives them in different places.

For the compound `CC12CC3CC4C5CC(N)(CC41)CC2C5C3` [MDT-24, 1-methyl-4-aminodiamantane], the “EC50 Virus A/PR/8/34” value in series [1] (setting [3]) is “No Effic”. Moreover, the “EC50 Virus A/WS/33” value with influenza A/WS/33 (H1N1) (setting [3]) was “No Effic”. Further, the EC50 in series [2] (setting [4]) was 70 nM. The “EC50 Virus B/GL/1739/54” value in the series with influenza B/GL/1739/54 (setting [5]) is given as “No Effic”. For the same compound, the Cytotoxicity result with Vero cells (setting [6]) is given as “No Tox”.
On to `OC12CC3C4CC5C6CC7CC5C(C4C1)C(C7)(C2)C63` [MDT-42, 9-hydroxytriamantane], for which the EC50 in series [1] (setting [7]) came to 80 nM; in the series with influenza A/WS/33 (H1N1) (setting [7]) it was 2500 nM. Besides, the “EC50 Virus A/HK/8/68” value in series [2] (setting [8]) was “No Effic”. In the series on influenza B/GL/1739/54 (setting [5]), the “EC50 Virus B/GL/1739/54” value was “No Effic”. Besides, the Cytotoxicity entry in the series on Vero cells (setting [6]) is “No Tox”.
`O=NC12CC3C4CC5CC3C(C1)C(C5)C4C2` [MDT-27, 4-nitrosodiamantane]: the values for the EC50 (in series [1] (setting [9]); in the series on influenza A/WS/33 (H1N1) (setting [10])) were 20 nM and 360 nM, respectively. The “EC50 Virus A/HK/8/68” value in series [2] (setting [8]) was “No Effic”. The “EC50 Virus B/GL/1739/54” value with influenza B/GL/1739/54 (setting [5]) was “No Effic”. The Cytotoxicity result in the series on Vero cells (setting [6]) is listed as “No Tox”.
`OC12C3CC4CC5C3CC3C6CC(CC31)CC2(C4)C56` [MDT-40, 2-hydroxytriamantane]: the values for the EC50 (in series [1] (setting [9]); with influenza A/WS/33 (H1N1) (setting [10])) were 1900 nM and 24900 nM, respectively. In series [2] (setting [8]), the “EC50 Virus A/HK/8/68” value is “No Effic”. In the series with influenza B/GL/1739/54 (setting [5]), the “EC50 Virus B/GL/1739/54” value was “No Effic”. For the same compound, the Cytotoxicity entry with Vero cells (setting [6]) was “No Tox”.
With `CC12CC3CC4C1CC1CC2C(O)(C3)C4(C)C1` (centres unmarked) [MDT-44, 1,6-dimethyl-2-hydroxydiamantane], the EC50 in series [1] (setting [9]) is 50 nM; in the series on influenza A/WS/33 (H1N1) (setting [10]), 610 nM. For the same compound, the “EC50 Virus A/HK/8/68” value in series [2] (setting [8]) was “No Effic”. Moreover, in the series with influenza B/GL/1739/54 (setting [5]), the “EC50 Virus B/GL/1739/54” value is “No Effic”. For the same compound, the Cytotoxicity result in the series on Vero cells (setting [6]) is recorded as “No Tox”.
`O=NC12CC3CC4C5CC(CC41)CC2C5C3` [MDT-26, 1-nitrosodiamantane]: the EC50 in series [1] (setting [9]) was 140 nM; in the series with influenza A/WS/33 (H1N1) (setting [10]), 800 nM. Also, the “EC50 Virus A/HK/8/68” value in series [2] (setting [8]) is “No Effic”. In addition, the “EC50 Virus B/GL/1739/54” value in the series with influenza B/GL/1739/54 (setting [5]) is recorded as “No Effic”. Further, the Cytotoxicity entry in the series on Vero cells (setting [6]) is reported as “No Tox”.
Take `NC12CC3C4CC5CC3C(C1)C(C5)C4C2` [MDT-3, 4-aminodiamantane]: the “EC50 Virus A/PR/8/34” value in series [1] (setting [3]) is recorded as “No Effic”. In the series on influenza A/WS/33 (H1N1) (setting [3]), the “EC50 Virus A/WS/33” value is given as “No Effic”. For the same compound, the EC50 in series [2] (setting [4]) is less than 125 nM. In the series on influenza B/GL/1739/54 (setting [5]), the “EC50 Virus B/GL/1739/54” value is given as “No Effic”. Further, in the series on Vero cells (setting [6]), the Cytotoxicity is listed as 10 or above μM.
Turning to `CC(N)C12CC3CC(CC(C3)C1)C2.Cl` (stereo not drawn) [Rimantadine, alpha-methyl-1-adamantanemethylamine hydrochloride, reference compound], the EC50 is no less than 1000 nM in series [1] (setting [11]), no less than 50000 nM in the series on influenza A/WS/33 (H1N1) (setting [12]), no more than 1000 nM in series [2] (setting [13]) and no less than 50000 nM in the series with influenza B/GL/1739/54 (setting [14]). For the same compound, the Cytotoxicity result in the series with Vero cells (setting [15]) was “No Tox”.
On to `CCOC(=O)C1=C[C@@H](OC(CC)CC)[C@H](NC(C)=O)[C@@H](N)C1` [Oseltamivir, reference compound], for which the EC50 in series [1] (setting [11]) was no less than 10000 nM; in the series with influenza A/WS/33 (H1N1) (setting [12]) it was no less than 5000 nM; in series [2] (setting [13]), no more than 1000 nM; in the series with influenza B/GL/1739/54 (setting [14]), no less than 15000 nM. Besides, the Cytotoxicity entry with Vero cells (setting [15]) was “No Tox”.
Take 2-aminotriamantane [MDT-50]: the figures for the EC50 (in series [1] (setting [9]); with influenza A/WS/33 (H1N1) (setting [10]); in the series with influenza B/GL/1739/54 (setting [5])) were 20 nM, 370 nM and less than 1000 nM, respectively. In addition, the “EC50 Virus A/HK/8/68” value in series [2] (setting [8]) is given as “No Effic”. Besides, the Cytotoxicity in the series with Vero cells (setting [6]) is 10 or above μM.

The values above are taken from patent publication US20080300317A1 (Chevron U.S.A. Inc., priority 2007, published 2008).
